Molecular target: T1, human glucagon receptor (Homo sapiens, UniProt P47871)
T1 construct: made in house; host or cells: FreeStyle CHO cells, transient transfection with pMSRαneo/hGCGR; membrane fraction (35,000 rpm pellet)
Assay: Glucagon binding inhibitory activity ([125I]-glucagon binding to glucagon receptor membrane protein)
Conditions: test compound 10 μM; 0.4% DMSO = 0%, non-labeled glucagon 1 μM = 100%; read-out: inhibitory rate (%) at 10 μM
Method in brief: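 Receptor source was a membrane fraction of transiently transfected CHO cells bearing human receptor; 90 min room-temperature binding, filtration harvest, scintillation counting.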

T1 sequence (P47871 26-477): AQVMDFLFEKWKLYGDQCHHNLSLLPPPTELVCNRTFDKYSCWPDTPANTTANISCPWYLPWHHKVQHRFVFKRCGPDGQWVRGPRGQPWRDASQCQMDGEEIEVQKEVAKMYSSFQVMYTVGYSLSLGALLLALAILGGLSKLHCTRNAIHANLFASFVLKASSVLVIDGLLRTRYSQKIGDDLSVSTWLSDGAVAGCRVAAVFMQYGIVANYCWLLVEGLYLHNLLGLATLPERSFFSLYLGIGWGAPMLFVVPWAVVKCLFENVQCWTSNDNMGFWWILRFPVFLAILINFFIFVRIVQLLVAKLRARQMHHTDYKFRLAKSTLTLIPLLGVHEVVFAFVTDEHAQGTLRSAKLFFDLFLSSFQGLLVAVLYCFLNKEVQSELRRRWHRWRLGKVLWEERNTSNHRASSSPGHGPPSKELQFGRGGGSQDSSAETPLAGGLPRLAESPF

Row | SMILES | inhibition at 10 µM [%]
1 | COc1ccc(-c2ccc3oc(C(Nc4ccc(C(=O)N(C)CCC(=O)O)cc4)C(C)C)c(C)c3c2)cn1 (centres unmarked) [Example A182, 3-[{[4-({1-[5-(6-methoxypyridin-3-yl)-3-methyl-1-benzofuran-2-yl]-2-methylpropyl}amino)phenyl]carbonyl}(methyl)amino]propanoic acid] | 95
2 | COc1ncccc1-c1ccc2oc(C(Nc3ccc(C(=O)N(C)CCC(=O)O)cc3)C(C)C)c(C)c2c1 (centres unmarked) [Example A183, 3-[{[4-({1-[5-(2-methoxypyridin-3-yl)-3-methyl-1-benzofuran-2-yl]-2-methylpropyl}amino)phenyl]carbonyl}(methyl)amino]propanoic acid] | 88
3 | Cc1c(C(Nc2ccc(C(=O)N(C)CCC(=O)O)cc2)C(C)C)oc2ccc(C3CC3)cc12 (centres unmarked) [Example A184, 3-{[(4-{[1-(5-cyclopropyl-3-methyl-1-benzofuran-2-yl)-2-methylpropyl]amino}phenyl)carbonyl](methyl)amino}propanoic acid] | 74
4 | Cc1c(C(Nc2ccc(C(=O)N(C)CCC(=O)O)cn2)C2CCCCC2)oc2c(F)cc(F)cc12 (centres unmarked) [Example A185, 3-{[(6-{[cyclohexyl(5,7-difluoro-3-methyl-1-benzofuran-2-yl)methyl]amino}pyridin-3-yl)carbonyl](methyl)amino}propanoic acid] | 71
5 | Cc1c(C(Nc2ccc(C(=O)N(C)CCC(=O)O)cc2)C2CCCCC2)oc2ccc(N3CCOCC3)cc12 (centres unmarked) [Example A186, 3-[{[4-({cyclohexyl[3-methyl-5-(morpholin-4-yl)-1-benzofuran-2-yl]methyl}amino)phenyl]carbonyl}(methyl)amino]propanoic acid] | 85
6 | Cc1c(C(Nc2ccc(C(=O)N(C)CCC(=O)O)cc2)C2CCCCC2)oc2ccc(N3CCSCC3)cc12 (centres unmarked) [Example A187, 3-[{[4-({cyclohexyl[3-methyl-5-(thiomorpholin-4-yl)-1-benzofuran-2-yl]methyl}amino)phenyl]carbonyl}(methyl)amino]propanoic acid] | 90
7 | COCCN(C)c1ccc2oc(C(Nc3ccc(C(=O)N(C)CCC(=O)O)cc3)C3CCCCC3)c(C)c2c1 (centres unmarked) [Example A188, 3-[({4-[(cyclohexyl{5-[(2-methoxyethyl)(methyl)amino]-3-methyl-1-benzofuran-2-yl}methyl)amino]phenyl}carbonyl)(methyl)amino]propanoic acid] | 77
8 | Cc1c(C(Nc2ccc(C(=O)NCCC(=O)O)cc2)C2CCCC2)oc2ccc(F)cc12 (centres unmarked) [Example A190, 3-{[(4-{[cyclopentyl(5-fluoro-3-methyl-1-benzofuran-2-yl)methyl]amino}phenyl)carbonyl]amino}propanoic acid] | 86
9 | CCC(CC)C(Nc1ccc(C(=O)NCCC(=O)O)cc1)c1oc2ccc(F)cc2c1C (centres unmarked) [Example A191, 3-{[(4-{[2-ethyl-1-(5-fluoro-3-methyl-1-benzofuran-2-yl)butyl]amino}phenyl)carbonyl]amino}propanoic acid] | 82
10 | Cc1c(C(Nc2ccc(C(=O)N(C)CCC(=O)O)cc2)C(C)C)oc2ccc(F)cc12 (centres unmarked) [Example A192] | 72
11 | Cc1c(C(Nc2ccc(C(=O)NCCC(=O)O)cc2)C(C)C)oc2ccc(F)cc12 (centres unmarked) [Example A193, 3-{[(4-{[1-(5-fluoro-3-methyl-1-benzofuran-2-yl)-2-methylpropyl]amino}phenyl)carbonyl]amino}propanoic acid] | 80
12 | Cc1cc(COc2ccc3oc(C(Nc4ccc(C(=O)N(C)CCC(=O)O)cc4)C4CCCCC4)c(C)c3c2)no1 (centres unmarked) [Example A194, 3-[({4-[(cyclohexyl{3-methyl-5-[(5-methylisoxazol-3-yl)methoxy]-1-benzofuran-2-yl}methyl)amino]phenyl}carbonyl)(methyl)amino]propanoic acid] | 88
13 | Cc1c(C(Nc2ccc(C(=O)N(C)CCC(=O)O)cc2)C2CCCCC2)oc2ccc(OCC(C)(C)O)cc12 (centres unmarked) [Example A195, 3-[{[4-({cyclohexyl[5-(2-hydroxy-2-methylpropoxy)-3-methyl-1-benzofuran-2-yl]methyl}amino)phenyl]carbonyl}(methyl)amino]propanoic acid] | 84
14 | Cc1c(C(Nc2ccc(C(=O)N(C)CCC(=O)O)cc2)C2CCCCC2)oc2ccc(OCC3(C)COC3)cc12 (centres unmarked) [Example A196, 3-[({4-[(cyclohexyl{3-methyl-5-[(3-methyloxetan-3-yl)methoxy]-1-benzofuran-2-yl}methyl)amino]phenyl}carbonyl)(methyl)amino]propanoic acid] | 87
15 | Cc1c(C(Nc2ccc(C(=O)N(C)CCC(=O)O)cc2)C2CCCCC2)oc2ccc(Oc3ncccc3C#N)cc12 (centres unmarked) [Example A198, 3-{[(4-{[{5-[(3-cyanopyridin-2-yl)oxy]-3-methyl-1-benzofuran-2-yl}(cyclohexyl)methyl]amino}phenyl)carbonyl](methyl)amino}-propanoic acid] | 87
16 | Cc1c(C(Nc2ccc(C(=O)N(C)CCC(=O)O)cc2)C2CCCCC2)oc2ccc(OC3CCS(=O)(=O)CC3)cc12 (centres unmarked) [Example A199, 3-[({4-[(cyclohexyl{5-[(1,1-dioxidotetrahydro-2H-thiopyran-4-yl)oxy]-3-methyl-1-benzofuran-2-yl}methyl)amino]phenyl}carbonyl)(methyl)amino]propanoic acid] | 88
17 | Cc1c(C(Nc2ccc(C(=O)N(C)CCC(=O)O)cc2)C2CCCCC2)oc2ccc(Oc3ccccn3)cc12 (centres unmarked) [Example A200, 3-[{[4-({cyclohexyl[3-methyl-5-(pyridin-2-yloxy)-1-benzofuran-2-yl]methyl}amino)phenyl]carbonyl}(methyl)amino]propanoic acid] | 89
18 | Cc1c(C(Nc2ccc(C(=O)N(C)CCC(=O)O)cc2)C2CCCCC2)oc2ccc(Oc3ccc(C#N)cn3)cc12 (centres unmarked) [Example A202, 3-{[(4-{[{5-[(5-cyanopyridin-2-yl)oxy]-3-methyl-1-benzofuran-2-yl}(cyclohexyl)methyl]amino}phenyl)carbonyl](methyl)amino}-propanoic acid] | 86
19 | Cc1c(C(Nc2ccc(C(=O)N(C)CCC(=O)O)cc2)C(C)C)oc2ccc(OC3CCSCC3)cc12 (centres unmarked) [Example A204, 3-(methyl{[4-({2-methyl-1-[3-methyl-5-(tetrahydro-2H-thiopyran-4-yloxy)-1-benzofuran-2-yl]propyl}amino)phenyl]carbonyl}amino)propanoic acid] | 86
20 | Cc1c(C(Nc2ccc(C(=O)N(C)CCC(=O)O)cc2)C(C)C)oc2ccc(Oc3ccc(C(F)(F)F)cn3)cc12 (centres unmarked) [Example A206, 3-{methyl[(4-{[2-methyl-1-(3-methyl-5-{[5-(trifluoromethyl)pyridin-2-yl]oxy}-1-benzofuran-2-yl)propyl]amino}phenyl)carbonyl]amino}propanoic acid] | 70
21 | Cc1c(C(Nc2ccc(C(=O)N(C)CCC(=O)O)cc2)C2CCCC2)oc2c(F)cc(F)cc12 (centres unmarked) [Example A208, 3-{[(4-{[cyclopentyl(5,7-difluoro-3-methyl-1-benzofuran-2-yl)methyl]amino}phenyl)carbonyl](methyl)amino}propanoic acid] | 83
22 | Cc1c(C(Nc2ccc(C(=O)N(C)CCC(=O)O)cc2)C2CCCCC2)oc2ccc(OCC3CCCO3)cc12 (centres unmarked) [Example A209, 3-[{[4-({cyclohexyl[3-methyl-5-(tetrahydrofuran-2-ylmethoxy)-1-benzofuran-2-yl]methyl}amino)phenyl]carbonyl}(methyl)amino]propanoic acid] | 90
23 | Cc1c(C(Nc2ccc(C(=O)N(C)CCC(=O)O)cn2)C(C)C)oc2ccc(OCC3CC3)cc12 (centres unmarked) [Example A211, 3-[{[6-({1-[5-(cyclopropylmethoxy)-3-methyl-1-benzofuran-2-yl]-2-methylpropyl}amino)pyridin-3-yl]carbonyl}(methyl)amino]propanoic acid] | 70
24 | Cc1c(C(Nc2ccc(C(=O)N(C)CCC(=O)O)nc2)C(C)C)oc2ccc(OCC3CC3)cc12 (centres unmarked) [Example A213, 3-[{[5-({1-[5-(cyclopropylmethoxy)-3-methyl-1-benzofuran-2-yl]-2-methylpropyl}amino)pyridin-2-yl]carbonyl}(methyl)amino]propanoic acid] | 70
25 | COc1c(C(Nc2ccc(C(=O)N(C)CCC(=O)O)cc2)C2CCCCC2)oc2ccc(F)cc12 (centres unmarked) [Example A214, 3-{[(4-{[cyclohexyl(5-fluoro-3-methoxy-1-benzofuran-2-yl)methyl]amino}phenyl)carbonyl](methyl)amino}propanoic acid] | 75
26 | COc1ccc2c(C(Nc3ccc(C(=O)N(C)CCC(=O)O)cc3)C3CCCCC3)c(C)oc2c1 (centres unmarked) [Example A215, 3-{[(4-{[cyclohexyl(6-methoxy-2-methyl-1-benzofuran-3-yl)methyl]amino}phenyl)carbonyl](methyl)amino}propanoic acid] | 72
